# From ChEMBL document CHEMBL6078725, “Discovery of novel xanthohumol C derivatives regulating XRCC2 transcription and expression for the treatment of colorectal cancer” (Bioorg Med Chem, 2025)
# Key:
# RKO = test: Antiproliferative activity against human RKO cells incubated for 48 hrs by MTS assay; format: functional, cell-based
# HCT-116 = test: Antiproliferative activity against human HCT-116 cells incubated for 48 hrs by MTS assay; format: functional, cell-based; conditions: HCT-116, 48 h
SMILES,IC50 (RKO) [µM],IC50 (HCT-116) [µM]
COc1cc2c(c(O)c1C(=O)/C=C/c1ccccc1Br)C=CC(C)(C)O2,23.1,20.5
COc1cc2c(c(O)c1C(=O)/C=C/c1ccccc1)C=CC(C)(C)O2,23.6,24.9
COc1cc(/C=C/C(=O)c2c(OC)cc3c(c2O)C=CC(C)(C)O3)cc(OC)c1O,25.6,39.4
COc1cccc(/C=C/C(=O)c2c(OC)cc3c(c2O)C=CC(C)(C)O3)c1,24.4,25.1
COc1cc2c(c(O)c1C(=O)/C=C/c1ccccc1O)C=CC(C)(C)O2,10.9,12.9
COc1cc2c(c(O)c1C(=O)/C=C/c1ccc(Cl)cc1)C=CC(C)(C)O2,26.2,26.1
COc1cc2c(c(O)c1C(=O)/C=C/c1ccc(O)c(Br)c1)C=CC(C)(C)O2,21.1,24.6
COc1cc2c(c(O)c1C(=O)/C=C/c1ccc(N3CCCCC3)cc1)C=CC(C)(C)O2,> 200,200
COc1cc2c(c(OC)c1C(=O)/C=C/c1ccc(O)cc1)C=CC(C)(C)O2,25.6,46.4
CCN(CC)c1ccc(/C=C/C(=O)c2c(OC)cc3c(c2O)C=CC(C)(C)O3)cc1,> 200,> 200
